Measured values: patent US5763435A, “Sulfate conjugates of ursodeoxycholic acid, and their beneficial use in inflammatory disorders” (priority 1995, dated 1998)
“And” between values parts separate entries of the source, which are not always exact repeats. Equal entries are not always repeated.

What was measured:
[1] = system: bile-flow; test: Bile-flow and bile acid secretion during i.v. infusion; type: in vivo, Sprague-Dawley rats; conditions: for Bile flow, maximum / Bile salt output (biliary bile acid secretion rate), maximum: i.v. infusion 0.5, 1.0, 2.0 μmol/min/100 g, mean ± SEM, six animals; for Apparent choleretic activity (slope of regression line): bile acid secretion rate vs bile-flow
Method: (§1) Adult male Sprague-Dawley rats (body weight 200-230 g) were anesthetized by an intraperitoneal injection of pentobarbital (Nembutal, 7.5 mg/100 g body weight), and maintained under sedation by additional doses. The right jugular vein and the common bile duct were cannulated using PE-50 polyethylene tubing (Clay-Adams, Parsippany, N.J.). Body temperature was maintained throughout the experiment at 37° C. using a rectal probe and a thermostatically controlled heating pad (Harvard Apparatus Co., Inc., Millis, Mass.). Saline was infused at a rate of 1.0 ml/h using a Harvard pump (Harvard Apparatus Co., Inc.) into the jugular vein for a control period of 2h. After collecting two 10 minute bile samples for base-line analysis, the bile acids were individually infused intravenously (i.v.) for 30 minutes in stepwise increasing doses (0.5, 1.0, and 2.0 μmol/min/100 g body weight). Bile acid solutions were prepared in 3% human albumin in 0.45% saline. Six animals were used for each experiment and bile was collected every 10 minutes into preweighed tubes. At the end of the experiment, blood was obtained by cardiac puncture, and urine was obtained by aspiration of the bladder. All biological specimens were stored at -20° C. This animal study protocol (#1 B 10044) was approved by the Bioethics committee of the Children's Hospital Medical Center (Cincinnati, Ohio).
Bile volume was determined gravimetrically assuming a density of 1 g/ml. Total 3α-hydroxy bile acid concentration in the bile was measured enzymatically before solvolysis (nonsulfated bile acids) and after solvolysis (total bile acids) (Mashige, F., et al., Direct spectrometry of total bile acids in serum. Clin. Chem. 27: 1352-1356 (1981)). The bile acid output was calculated by multiplying the rate of bile-flow by the bile acid concentration. Biliary phospholipids were determined by an enzymatic procedure based on the choline oxidase method (Nippon Shoji Kaisha, Ltd., Osaka, Japan) (Grantz, D., et al., Enzymatic measurement of choline-containing phospholipids in bile. J. Lipid Res. 22: 273-276 (1981)). Cholesterol was also measured enzymatically (Boehringer Mannehim, Indianapolis, Ind.) (Fromm, H., et al., Use of a simple enzymatic assay for cholesterol analysis in human bile. J. Lipid Res. 21: 259-261 (1980)).
Results were expressed as mean±standard error of mean (SEM). Bile-flow and biliary lipid output were expressed as μl /min/g liver and nmol/min/g liver, respectively. Statistical analysis was made using INSTAT program (Graphpad Software Inc., San Diego, Calif.). Parametric data among groups were analyzed using Student's t-test. The statistical comparisons between the different groups were made by one-way analysis of variance (ANOVA). […] Linear regression analysis was performed. The choleretic activity of each bile acid was determined from the slope of regression line of the correlation between the bile acid secretion rate and bile-flow and was expressed as […]. Comparisons between slopes were made by one-way ANOVA.

[2] = Urinary excretion after i.v. infusion; type: in vivo, Sprague-Dawley rats; conditions: rat, urine, iv, read-out: Proportion of administered dose appearing in urine
Method: as §1
Negative ion fast atom bombardment-mass spectrometry (FAB-MS) spectra of bile samples, urine and synthetic compounds were obtained after placing the equivalent of approximately 1 μl of the original bile extract, 10 μl-50 μl of the urine extract and jig quantities of synthetic bile acids dissolved in methanol onto a small drop of a glycerol matrix spotted on a copper target of the FAB probe. This probe was introduced directly into the ion source of the mass spectrometer and a beam of fast atoms of either xenon generated with a saddle field atom gun (ion Tech, Teddington, Middlesex, UK) operated at 8 kV and 20 μA, or cesium generated from cesium iodine (35 kV), was fired at the target containing the sample. Negative ion spectra were obtained over the mass range of 50-1000 Da/e.
Urine collections from the six animals were pooled and the bile acids were extracted by liquid-solid extraction using a Bond Elut-C18 cartridge and bile acids were analyzed by GC-MS after solvolysis, hydrolysis and derivatization.

Row | Compound | Choleretic effect / order of maximum bile-flow (in words) ([1]; i.v. infusion) | Bile flow, maximum [1] [μl/min/g liver] | Bile salt output (biliary bile acid secretion rate), maximum [1] | Apparent choleretic activity (slope of regression line) ([1]; i.v. infusion) [µL/µmol] | dose excreted [2] [%]
1 | C[C@H](CCC(=O)O)[C@H]1CC[C@H]2[C@@H]3[C@@H](O)C[C@@H]4C[C@H](OS(=O)(=O)O)CC[C@]4(C)[C@H]3CC[C@]12C [UDCA-3S, ursodeoxycholic acid 3-sulfate] | less effective in stimulating bile-flow than unconjugated UDCA | 3.34 ± 0.13 | 138.90 ± 11.80 nmol/min/g liver and 138.9±11.8 nmol/min/g liver | 13 ± 1 | 2.8
2 | C[C@H](CCC(=O)O)[C@H]1CC[C@H]2[C@@H]3[C@@H](OS(=O)(=O)O)C[C@@H]4C[C@H](O)CC[C@]4(C)[C@H]3CC[C@]12C [UDCA-7S, ursodeoxycholic acid 7-sulfate] | – | 5.83 ± 0.31 | 255.40 ± 18.20 nmol/min/g liver and 255.4±18.2 nmol/min/g liver | 15 ± 1 | 0.9
3 | C[C@H](CCC(=O)O)[C@H]1CC[C@H]2[C@@H]3[C@@H](O)C[C@@H]4C[C@H](O)CC[C@]4(C)[C@H]3CC[C@]12C [UDCA, 3 alpha, 7 beta-dihydroxy-5 beta-cholan-24oic acid, reference compound] | – | 4.88 ± 0.16 | 145.10 ± 17.30 nmol/min/g liver and 145.1±17.3 nmol/min/g liver | 16 ± 2 | 0.01
4 | C[C@H](CCC(=O)O)[C@H]1CC[C@H]2[C@@H]3[C@@H](OS(=O)(=O)O)C[C@@H]4C[C@H](OS(=O)(=O)O)CC[C@]4(C)[C@H]3CC[C@]12C [UDCA-DS, ursodeoxycholic acid 3,7-disulfate] | – | 5.92 ± 0.21 | 222.40 ± 24.30 nmol/min/g liver and 222.4±24.3 nmol/min/g liver | 16 ± 1 | 2.2
